Measurements from US9533977B2, “Oxazolidinone derivative as CETP inhibitor, its preparation method, and pharmaceutical composition comprising the same” (DONG-A ST CO., LTD., priority 2013, dated 2017).
Where two headings read alike, the source gives them in different places.

Tests used:
[1] = Drug concentration in blood and tissues of hamsters administered with multiple doses; assay type: in vivo, Golden Syrian Hamsters; settings: oral 10 mg/kg every day for two weeks; for concentration at 2 h: male, Golden Syrian, hamster, two hours after the final administration
Experimental: (§1) Each of the compounds of Examples 58, 96, 103 and 125 was orally administered at a dose of 10 mg/kg to 10 7-week-old male Golden Syrian Hamsters per group, every day for two weeks. Two hours after the final administration, blood samples were taken from the hamsters which then underwent an autopsy to analyze blood lipid levels and drug concentrations in blood and tissues (adipose tissues and liver)

Blood HDL-C = Blood HDL-C level in multi-dosed hamsters; assay type: in vivo, Golden Syrian Hamsters; settings: oral 10 mg/kg every day for two weeks, blood two hours after the final administration
Experimental: as §1

CETP [2] = assay: Effect on CETP activity in hamster administered with single dose; assay type: in vivo, Golden Syrian hamsters; settings: hamsters, single oral dose 100 mg/kg, blood 0.5-24 hrs after administration, compared to pre-treatment
Experimental: Each of the compounds of the Examples was orally administered at a dose of 100 mg/kg to three 7-week-old male Golden Syrian hamsters per group. Blood samples were taken from the retro-orbital plexus before administration and 0.5, 1, 2, 4, 6, 8, and 24 hrs after administration, and measured for blood CETP activity using a Roar CETP activity assay kit (Cat#: RB-CETP, Roar Biomedical Inc.).

CETP [3] = biological target: T1, CETP (Homo sapiens, UniProt P11597); assay: Inhibitory activity against CETP in human plasma (Roar CETP activity kit, fluorescence); assay type: biochemical; settings: plasma from healthy men diluted 1:10 in assay buffer, 37° C., 3 hrs, fluorescence 465/535 nm; read-out: IC50, Inhibition of CETP Activity in Human Plasma
T1 construct: from tissue; host or cells: human plasma from healthy men
T1 sequence (P11597 18-493): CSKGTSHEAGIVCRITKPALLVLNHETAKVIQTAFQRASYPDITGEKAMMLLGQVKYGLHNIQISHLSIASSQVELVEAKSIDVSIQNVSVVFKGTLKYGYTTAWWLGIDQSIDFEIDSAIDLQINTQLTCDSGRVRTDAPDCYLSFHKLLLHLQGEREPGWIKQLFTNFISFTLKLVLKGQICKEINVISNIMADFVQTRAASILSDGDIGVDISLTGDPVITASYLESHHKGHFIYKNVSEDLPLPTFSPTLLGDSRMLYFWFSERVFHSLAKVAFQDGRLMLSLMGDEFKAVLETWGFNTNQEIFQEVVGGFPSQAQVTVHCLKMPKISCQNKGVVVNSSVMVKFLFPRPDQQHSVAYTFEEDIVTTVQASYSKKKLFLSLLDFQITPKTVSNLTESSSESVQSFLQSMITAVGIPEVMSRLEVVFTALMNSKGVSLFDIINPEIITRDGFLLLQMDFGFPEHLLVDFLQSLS
How it was run: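 Healthy male human plasma, diluted 1:10, incubated 3 hrs at 37° C with donor/acceptor fluorescent substrates and compound (0.01–10000 nM, DMSO). Fluorescence at ex 465/em 535 nm, background-corrected against no-plasma and no-compound wells; IC50 from sigmoidal fit.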

Question: For `CCN(c1ncc(-c2c(C)noc2C)nc1CN1C(=O)O[C@H](c2cc(C(F)(F)F)cc(C(F)(F)F)c2)[C@@H]1C)C1CCCCC1` [Example 96, (4S,5R)-5-[3,5-bis(trifluoromethyl)phenyl]-4-methyl-3-({[2-(ethyl)(cyclohexyl)amino]-5-(3,5-dimethyl-isoxazol-4-yl)pyrazin-3-yl}methyl)-oxazolidin-2-one], which concentration at 2 h ([1]; adipose tissue, read-out: Drug Concentration Adipose Tissue) is on record?
Answer: The concentration at 2 h was 7900 ng/g.

Question: What about the concentration at 2 h ([1]; blood, read-out: Drug Concentration Blood) of the same compound?
Answer: The concentration at 2 h was 309 ng/mL.

Question: What about the concentration at 2 h ([1]; liver, read-out: Drug Concentration Liver Tissue) of the same compound?
Answer: Its concentration at 2 h is 128 ng/g.

Question: And the “Distribution between blood, liver and adipose tissues (in words)” value [1]?
Answer: The value was “at low levels in blood and liver tissues, but at high levels in adipose tissues”.

Question: What about the “Relative Increase HDL-C (%) to VC (Vehicle)” value (Blood HDL-C) of the same compound?
Answer: Its value is 48%.

Question: What about the “Relative Maximal Inhibition of CETP Activity to Pre-Administration (%)” value (CETP [2]) of the same compound?
Answer: The value was 56%.

Question: And the IC50 (CETP [3])?
Answer: The IC50 was 2 nM.
